This is an account of results in patent US8431589B2, “2,4-diaminopyrimidine derivatives” (Novartis AG, priority 2002, dated 2013).

In general, pIC50 refers to the IC50 on a negative log10 scale, so that one unit is a factor of ten. One may read the melting point as the temperature, or range, at which the solid turns liquid.

pIC50: −log10 of the molar value.

Series [1] deals with T1, recombinant hexahistidine-tagged human FAK kinase domain (Homo sapiens, UniProt Q05397).
T1 construct: the kinase domain of FAK (Met384-Gly706) from position 29 to 351; made in house; host or cells: baculovirus; Sf9 and ExpresSF+ insect cells
Put plainly: FAK assay (FRET, Biot-Y397 substrate). It is filed as biochemical.
Description: All steps are performed in a 96-well black microtiter plate. Purified recombinant hexahistidine-tagged human FAK kinase domain is diluted with dilution buffer (50 mM HEPES, pH 7.5, 0.01% BSA, 0.05% Tween-20 in water) to a concentration of 94 ng/mL (2.5 nM). The reaction mixture is prepared by mixing 10 μL 5× kinase buffer (250 mM HEPES, pH 7.5, 50 μM Na3VO4, 5 mM DTT, 10 mM MgCl2, 50 mM MnCl2, 0.05% BSA, 0.25% Tween-20 in water), 20 μL water, 5 μL of 4 μM biotinylated peptide substrate (Biot-Y397) in aqueous solution, 5 μL of test compound in DMSO, and 5 μL of recombinant enzyme solution and incubated for 30 min at room temperature. The enzyme reaction is started by addition of 5 μL of 5 μM ATP in water and the mixture is incubated for 3 hours at 37° C. The reaction is terminated by addition of 200 μL of detection mixture (1 nM Eu-PT66, 2.5 μg/mL SA-(SL)APC, 6.25 mM EDTA in dilution buffer), and the FRET signal from europium to allophycocyanin is measured by ARVOsx+L (Perkin Elmer) after 30 min of incubation at room temperature. The ratio of fluorescence intensity of 665 nm to 615 nm is used as a FRET signal for data analysis in order to cancel the colour quenching effect by a test compound. The results are determined as percent inhibition of enzyme activity. […] IC50 values are determined by non-linear curve fit analysis using the OriginPro 6.1 program (OriginLab).

Series [2] has as its target T2, human ZAP-70 protein tyrosine kinase (Homo sapiens, UniProt P43403).
T2 construct: purchased Upstate Biotechnology, Lake Placid, N.Y
T2 sequence (P43403 1-619): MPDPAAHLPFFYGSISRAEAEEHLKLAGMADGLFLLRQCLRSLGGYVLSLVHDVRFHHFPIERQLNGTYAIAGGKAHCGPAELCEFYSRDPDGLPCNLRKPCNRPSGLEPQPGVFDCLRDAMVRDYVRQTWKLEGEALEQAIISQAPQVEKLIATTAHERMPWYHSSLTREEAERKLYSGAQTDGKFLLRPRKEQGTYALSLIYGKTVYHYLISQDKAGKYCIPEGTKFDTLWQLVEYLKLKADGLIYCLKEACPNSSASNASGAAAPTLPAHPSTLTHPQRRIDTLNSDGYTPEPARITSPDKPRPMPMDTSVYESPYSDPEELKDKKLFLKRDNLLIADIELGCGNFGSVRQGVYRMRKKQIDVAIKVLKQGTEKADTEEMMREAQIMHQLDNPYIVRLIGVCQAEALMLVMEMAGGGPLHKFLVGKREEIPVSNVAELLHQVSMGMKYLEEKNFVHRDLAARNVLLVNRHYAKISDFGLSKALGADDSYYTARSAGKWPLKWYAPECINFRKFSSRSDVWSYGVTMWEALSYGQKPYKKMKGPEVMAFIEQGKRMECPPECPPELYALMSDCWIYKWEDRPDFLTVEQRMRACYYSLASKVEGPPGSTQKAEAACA
The series is described as follows: ZAP-70 kinase assay (homogenous, time-resolved FRET, LAT-11 substrate). It is filed as biochemical. To be noted: 4 μM ATP. An excerpt: (§1) More particularly the compounds of the invention are active at the human ZAP-70, FAK and/or Syk protein tyrosine kinases.
(§2) ZAP-70, Lck and Syk are commercially available from Upstate Biotechnology, Lake Placid, N.Y.
Preparation of LAT-11 (SEQ ID NO:1): The peptide LAT-11 used as a substrate in the ZAP-70 kinase assay may be prepared as disclosed in Example 1A of WO 02/12275, the contents of which, particularly with reference to Example 1A, is incorporated herein by reference.
ZAP-70 Kinase assay: The activities of the agents of invention are determined in a homogenous ZAP-70 kinase assay based on time-resolved fluorescence resonance energy transfer. Briefly, 80 nM ZAP-70 are incubated with 80 nM Lck and 4 μM ATP in ZAP-70 kinase buffer (20 mM Tris, pH 7.5, 10 μM Na3VO4, 1 mM DTT, 1 mM MnCl2, 0.01% bovine serum albumin, 0.05% Tween 20) for 1 hour at room temperature in a siliconized polypropylene tube. Then, the selective Lck inhibitor PP2 (4-amino-5-(4-chloro-phenyl)-7-(t-butyl)pyrazolo[3,4-d]pyrimidine; Alexis Biochemicals) is added (final concentration 1.2 μM) and incubated for further 10 min. […] After 1 hour incubation at room temperature fluorescence is measured, e.g., on the Victor2 Multilabel Counter (Wallac) at 665 nm. […] The inhibition obtained in the presence of test compounds was calculated as percent inhibition of the high control. […]

The target in series [3] is T3, human Syk protein tyrosine kinase (Homo sapiens, UniProt P43405).
T3 construct: purchased Upstate Biotechnology, Lake Placid, N.Y
Put plainly: Syk kinase assay (heterogenous DELFIA, poly(Glu, Tyr) substrate). The format is biochemical. To be noted: ATP 1 μM. On the procedure:
as §1, §2
Syk Kinase assay: The activities of the agents of invention are determined in a heterogenous Syk kinase assay based on the dissociation-enhanced lanthanide fluoroimmunoassay (DELFIA) technology. This method utilizes europium chelate-labelled anti-phosphotyrosine antibodies to detect phosphate transfer by Syk to a polymeric glutamic acid-tyrosine (Glu, Tyr) substrate coated onto microtiter plates as described (Braunwalder A F, Yarwood D R, Sills M A, Lipson K E. Measurement of the protein tyrosine kinase activity of c-src using time-resolved fluorometry of europium chelates. Anal. Biochem. 1996; 238(2):159-64). The amount of phosphorylation is then quantified with time-resolved, dissociation-enhanced fluorescence. Briefly, hundred μl of poly (Glu, Tyr) (4:1; 2 μg/ml in phosphate-buffered saline, PBS) are coated to ELISA plates overnight at room temperature. The poly (Glu, Tyr) solution is removed and 250 μl of 1% bovine serum albumin in PBS are added for one hour at room temperature. […] Fluorescence is determined at 615 nm (Victor2; Wallac). […] The inhibition obtained in the presence of test compounds was calculated as percent inhibition of the high control. […]

The subject of series [4] is Mouse mammary carcinoma 4T1 cells. Put plainly: Anchorage-independent tumor cell growth assay. It is filed as cell-based. To be noted: Ultra low Attachment plates, 48 h, read-out: IC50, 50% inhibition of growth. On the procedure: Mouse mammary carcinoma 4T1 cells (5×10^3) are plated in 96-well Ultra low Attachment plates (#3474, Corning Inc.) in […] of Dulbecco's modified eagle medium containing 10% FBS. Cells are cultured for 2 h and inhibitors are added at various concentrations in a final concentration of 0.1% DMSO. After 48 h, cell growth is assayed with the cell counting kit-8 (Wako Pure Chemical), which uses a water soluble tetrazolium salt WST8. Twenty μL of the reagent is added into each well and cells are further cultured for 2 h. The optical density is measured at 450 nm. The concentration of compound causing 50% inhibition of growth may thus be determined.

The next series has as its target T4, FAK (Mus musculus, UniProt P34152).
T4 construct: endogenous in cells; host or cells: mouse mammary carcinoma 4T1 cells
Put plainly: Phosphorylation levels of FAK at Tyr397 (sandwich ELISA) in 4T1 cells. It is filed as cell-based. As to conditions: 1 h incubation, read-out: IC50, 50% reduction of phosphorylation level of FAK (Tyr397). On the procedure: Phosphorylation levels of FAK at Tyr397 are quantified by the sandwich ELISA. Mouse mammary carcinoma 4T1 cells (1×10^5) are plated in wells of 96-well culture plates and incubated with or without various concentrations of a compound of formula I for 1 h in Dulbecco's modified eagle medium containing 10% FBS. The medium is removed and cells are lysed in 200 μL 50 mM Tris-HCl, pH 7.4, containing 1% NP-40, 0.25% sodium deoxycholate, 150 mM NaCl, 1 mM EDTA, 1 mM PMSF, 1 mM Na3VO4, 1 mM NaF, 1 μg/mL aprotinin, 1 μg/mL leupeptin and 1 μg/mL pepstatin. After centrifugation, the supernatants are subjected to a sandwich ELISA to quantify the phosphorylated FAK and total FAK. […] After washing with TBSN (20 mM Tris-HCl, pH 8.3, containing 300 mM NaCl, 0.1% SDS and 0.05% NP-40), total FAK is detected with 100 μL of 1 μg/ml anti-FAK polyclonal antibody (#65-6140, Upstate Biology Inc.), and phosphorylated FAK is detected with 100 μL of […] anti-phosphorylated FAK (Y397) antibody (Affinity BioReagents, #OPA1-03071) in BlockAce diluted at 1:10 with H2O. […] Absorbance at 405 nm is measured after 20 min incubation at room temperature. […]
On the technique in general: In an ELISA, binding on a coated surface is turned into a signal by an enzyme label.

T4 sequence (P34152 whole entry): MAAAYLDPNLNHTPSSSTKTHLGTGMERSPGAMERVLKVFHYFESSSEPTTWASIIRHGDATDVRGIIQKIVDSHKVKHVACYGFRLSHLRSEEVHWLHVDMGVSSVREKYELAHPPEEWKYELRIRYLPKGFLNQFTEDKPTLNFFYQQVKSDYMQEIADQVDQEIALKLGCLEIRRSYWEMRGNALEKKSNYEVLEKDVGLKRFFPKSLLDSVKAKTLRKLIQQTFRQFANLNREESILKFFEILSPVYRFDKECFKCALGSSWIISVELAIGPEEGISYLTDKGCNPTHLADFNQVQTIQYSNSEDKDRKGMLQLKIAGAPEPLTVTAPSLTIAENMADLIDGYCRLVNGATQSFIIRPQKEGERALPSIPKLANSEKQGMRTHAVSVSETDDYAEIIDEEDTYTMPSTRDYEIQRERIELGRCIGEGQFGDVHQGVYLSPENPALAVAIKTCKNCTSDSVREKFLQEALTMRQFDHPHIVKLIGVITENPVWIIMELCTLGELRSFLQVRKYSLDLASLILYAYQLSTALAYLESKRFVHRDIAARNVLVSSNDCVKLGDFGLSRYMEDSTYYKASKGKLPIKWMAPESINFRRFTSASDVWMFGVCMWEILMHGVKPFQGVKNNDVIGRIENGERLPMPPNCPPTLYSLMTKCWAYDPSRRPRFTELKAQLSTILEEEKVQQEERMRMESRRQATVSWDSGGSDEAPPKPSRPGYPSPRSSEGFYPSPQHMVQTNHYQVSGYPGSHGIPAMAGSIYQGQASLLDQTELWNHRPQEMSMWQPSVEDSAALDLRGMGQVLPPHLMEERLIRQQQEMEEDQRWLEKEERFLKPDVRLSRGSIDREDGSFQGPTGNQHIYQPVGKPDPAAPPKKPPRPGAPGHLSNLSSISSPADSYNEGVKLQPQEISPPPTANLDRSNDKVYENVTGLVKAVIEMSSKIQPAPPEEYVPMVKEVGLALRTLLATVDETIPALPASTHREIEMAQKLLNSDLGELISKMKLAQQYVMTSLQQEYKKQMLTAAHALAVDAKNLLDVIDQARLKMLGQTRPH
T1 sequence (Q05397 384-706): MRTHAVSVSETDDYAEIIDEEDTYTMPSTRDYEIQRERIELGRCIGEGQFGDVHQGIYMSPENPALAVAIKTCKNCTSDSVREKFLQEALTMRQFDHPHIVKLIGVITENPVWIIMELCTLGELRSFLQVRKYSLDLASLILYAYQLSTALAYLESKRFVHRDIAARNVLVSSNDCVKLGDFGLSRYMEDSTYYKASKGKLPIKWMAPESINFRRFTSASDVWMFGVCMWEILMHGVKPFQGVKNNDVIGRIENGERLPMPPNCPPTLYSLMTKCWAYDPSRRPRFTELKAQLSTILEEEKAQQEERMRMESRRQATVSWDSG

Consider `CNS(=O)(=O)c1ccccc1Nc1nc(Nc2cccc(C)c2)ncc1Br` [Example 188], for which the negative-log IC50 (pIC50) in series [1] is 7.82.

`COc1cc(Nc2nccc(Nc3cccc(OC)c3S(N)(=O)=O)n2)cc(OC)c1OC` [Example 4, 2-Methoxy-6-[2-(3,4,5-trimethoxy-phenylamino)-pyrimidin-4-ylamino]-benzenesulfonamide] had a pIC50 in series [2] of 7.92. For the compound `Cc1cccc(Nc2ccnc(Nc3cccc(OCCn4ccnc4)c3)n2)c1S(N)(=O)=O` [Example 128], the pIC50 in series [3] was 6.82. As for `CNS(=O)(=O)c1ccccc1Nc1nc(Nc2cc(OC)c(OC)c(OC)c2)ncc1Cl` [Example 213], in series [4], the pIC50 is 7.80.

As for `CNS(=O)(=O)c1ccccc1Nc1nc(Nc2cc(OC)c(OC)c(OC)c2)ncc1C(F)(F)F` [Example 208], the negative logarithm of the IC50 (pIC50) in series [1] was 9.00. Regarding `CNS(=O)(=O)c1ccccc1Nc1nc(Nc2ccc3cn[nH]c3c2)ncc1Br` [Example 198], the pIC50 at FAK was 7.37.

For the compound `CNS(=O)(=O)c1cc(F)ccc1Nc1nc(Nc2cc(OC)c(OC)c(OC)c2)ncc1Br` [Example 190], the negative logarithm of the IC50 (pIC50) at FAK was 6.36. As for `COc1cc(Nc2nccc(Nc3cccc(C)c3S(N)(=O)=O)n2)cc(OC)c1OC` [Example 3, 2-methyl-6-[2-(3,4,5-Trimethoxy-phenylamino)-pyrimidin-4-ylamino]-benzenesulfonamide], the melting point fell in the range of 72 to 75 °C.
